From patent publication US12391646B2, “Using adiponectin receptor agonists to treat inflammation and bone diseases in diabetes” (Trustees of Tufts College, priority 2020, dated 2025)

How the values were obtained:
[1] = tested on: DIO mice with experimental periodontitis; experiment: Experimental periodontitis in DIO mice; assay type: in vivo; conditions: for numbers of osteoclasts on alveolar bone (TRAP stain): compared to vehicle-treated DIO mice; for IL-6 and CCL-2 gene expression in periodontal epithelium: compared to vehicle-treated group; for bodyweight / decrease in fasting blood glucose level: two weeks oral gavage, AdipoRon 50 mg/kg, AdipoAI 25 mg/kg, vs vehicle; for average alveolar bone loss at 6 sites (CEJ-ABC distance): two weeks, vehicle 372.3±27.3 μm
Method: FIG. 19 AdipoRon and AdipoAI attenuate experimental periodontitis in diet-induced obesity (DIO). (A) Bodyweight of vehicle, AdipoRon and AdipoAI-treated DIO mice with experimental periodontitis. (B) Fasting blood glucose in DIO mice with experimental periodontitis treated with vehicle, AdipoRon and AdipoAI. (C) A representative 3-dimensional model of alveolar bone in DIO mice with experimental periodontitis. […] The distance from ABC to CEJ in four groups is shown in (D) (n≥7). (E) Representative TRAP-stained alveolar bone in DIO mice with experimental periodontitis. Black arrow, osteoclast (scale bar=200 μm). The number of osteoclasts attached to the alveolar bone surface was calculated (F). (G) Relative expression of IL-6 and CCL2 genes in gingival tissue from DIO mice with experimental periodontitis was analyzed using real-time PCR. The animals were treated AdipoRon and AdipoAI or vehicle alone (n≥5).
DIO (C57BL/6J background, Jax #380050) were purchased from the Jackson Laboratory (Bar Harbor, ME, http://www.jax.org/). After acclimatization, animals were fed a high-fat diet (containing 60% kcal from fat, Jackson Laboratory) from 6 weeks of age onwards. Experimental periodontitis was induced in 20-week-old mice by 5-0 silk suture as described previously 26. Briefly, animals were anesthetized using ketamine/xylazine and buprenorphine and the sutures were placed around the maxillary second molar and tied on the palatal side for 2 weeks. The ethical approval of this study was provided by the IACUC of UCSD. The care and use of laboratory animals and Animal Research was performed in accordance with NIH guidelines.
AdipoRon (50 mg/kg body weight)^23, 24 and the AdipoAI (25 mg/kg body weight)^25 were administered by oral gavage concurrently with establishment of experimental periodontitis for 2 weeks.
Gingival tissues from the palatal side were sampled and immediately stored in liquid nitrogen until further analysis. The skulls were scanned by the Bruker Skyscan micro-CT system (Bruker, Kontich, Belgium). Alveolar bone loss, defined as the distance between the cementoenamel junction (CEJ) to the alveolar bone crest (ABC), was measured at six sites (mesio-buccal, mid-buccal, disto-buccal, mesio-palatal, mid-palatal, and disto-palatal) using Ctan software (http://bruker-microct.com/products/downloads.htm) as previously reported^26. Periodontal hard tissue sections were stained with Acid Phosphatase, Leukocyte (TRAP) Kit (Sigma, St. Louis, MO, USA) according to the manufacturer's instructions.
Total RNA was isolated from cell cultures and gingival soft tissues using TriZol reagent (Life Technologies, Carlsbad, CA, USA) according to the manufacturer's instructions^24. Reverse transcription was performed using the PrimeScript RT Master Mix (Takara Bio, Otsu, Japan) and real-time-qPCR analyses were performed using SYBR-Green Real-Time PCR Master Mix (Takara Bio, Otsu, Japan) as described earlier^27.

[2] = tested on: NF-κB and p38 MAPK signaling pathways, APPL1; experiment: Western blotting of signaling proteins in Raw264.7 cells; assay type: cell-based; conditions: for densitometry value p-IRAK4 (FIG. 5a) / densitometry value p-P38 (FIG. 5a) / densitometry value APPL1 (FIG. 5e), without LPS / densitometry value APPL1 (FIG. 5e), with LPS: relative to first lane 1.00, lane order inferred; for densitometry value p-IRAK4 (FIG. 5a) / densitometry value p-P38 (FIG. 5a): APR 20 μM or AdipoAI 5 μM 24 h, LPS 30 min; for densitometry value APPL1 (FIG. 5e), without LPS: APR 20 μM; for densitometry value APPL1 (FIG. 5e), with LPS: LPS alone 0.32
Method: FIG. 5 AdipoAI inhibition of NF-κB and p38 MAPK signaling pathways is dependent of AdipoR1/APPL1 axis in LPS-induced macrophages. (a) Impact of AdipoAI in the phosphorylation of related signaling proteins by western blotting. Raw264.7 cells were pretreated with APR (20 μM) or AdipoAI (5 μM) for 24 h followed by incubation with LPS (100 ng/mL) for an additional 30 min. Representative images are shown, and quantitative analysis of protein expression was performed by densitometric analysis (see lower panel), densitometry values—p-IRAK4: 1.00, 0.13, 0.09; p-P38: 1.00, 0.76, 0.26. (b) Expression of p65 protein in cytoplasmic and nuclear extracts of Raw264.7 cells. Representative images of p65 expression are presented along with Lamin B1 and β-actin expression which were used as internal loading controls. Quantitative analysis of protein expression was performed by densitometric analysis (lower panel), Densitometry values-p-P65: 0.53, 1.00, 0.38, 0.76; P65: 0.32, 1.00, 0.21, 0.53. (c) RAW 264.7 cells were transfected with siRNA targeting cither AdipoR1, AdipoR2, APPL1, APPL2 or scrambled control siRNA for 24 h, followed by stimulation with AdipoAI or APR for 24 h, then incubation with LPS for additional 6 h. Transfection efficiency of siRNA and mRNA expression levels of IL-6, IL-1β were measured by qPCR and normalized with GAPDH mRNA levels. Data were expressed as the mean±SEM at five biological independent experiments. One-way ANOVA test for multiple-group comparisons, *P<0.05, significant differences between each indicated group. ns, not significant. (d) RAW 264.7 cells were stimulated with LPS, AdipoAI, or APR for different times and proteins levels determined by western blotting. Representative western blotting images are shown along with β-actin used as an internal loading control and densitometric analysis. Densitometry values-Panel 1: APPL1: 1.00, 0.48, 0.44; Panel 2: APPL1: 1.00, 2.17, 5.38; Panel 3: APPL1: 1.00, 2.11, 4.82. (e) Raw264.7 cells were pretreated with APR (20 μM) or AdipoAI (5 μM) for 24 h followed by incubation with LPS (100 ng/mL) for additional 6 h for the measurement of related proteins by WB. Representative images are shown along with β-actin as an internal loading control and densitometric analysis. Densitometry values—APPL1: 1.00, 1.53, 1.58, 0.32, 0.45, 0.67. (f) Raw264.7 cells and (g) BMMs were transfected with siRNA targeting APPL1 or scrambled control siRNA for 24 h, followed by stimulation with AdipoAI for 24 h, then incubation with LPS for additional 6 h for western blotting analysis. Densitometry values for f—APPL1: 1.00, 0.43; p-IRAK4: 1.00, 1.31; p-P-38:1.00, 1.47. Densitometry values for g—APPL1: 1.00, 0.38; p-IRAK4: 1.00, 1.30; p-P38: 1.00, 1.67. Representative images are shown along with β-actin as an internal loading control, and densitometric analysis. No statistical analysis of western blotting for n=3.
Total cellular extracts were prepared using RIPA Lysis and Extraction Buffer containing three Protease Inhibitors (Thermo Scientific). Cytoplasmic and nuclear extracts were purified using NE-PER™ Nuclear and Cytoplasmic Extraction Reagents (Thermo Scientific). Experimental details of western blotting are in accordance with British Journal of Pharmacology guidelines (Alexander et al., 2018) and western blot analyses were performed as previously described (J. Zhang et al., 2017). Briefly, the total protein concentration was quantified using BCA kit (P1511; Applygen Technologies Inc., Beijing, China). The samples were separated by SDS-PAGE and electrophoretically transferred to a polyvinylidene difluoride membrane (Merck Millipore, Darmstadt, Germany). The membranes were blocked with 5% skim milk for 1 to 2 hr at room temperature. […]

[3] = LPS-induced Raw264.7 cells, AdipoAI 5 μM

| SMILES | numbers of osteoclasts on alveolar bone (TRAP stain) [1] | IL-6 and CCL-2 gene expression in periodontal epithelium [1] | bodyweight [1] | decrease in fasting blood glucose level [1] | average alveolar bone loss at 6 sites (CEJ-ABC distance) [1] | phosphorylation of AKT, JNK or ERK ([2]; LPS-induced Raw264.7 cells) | decrease of phosphorylation of IRAK4 [2, 3] | decrease of phosphorylation of p38 [2, 3] | APPL1 protein expression ([2]; Raw264.7 cells) | AdipoR1 or AdipoR2 protein levels ([2]; Raw264.7 cells) | LPS-induced p65 phosphorylation and nuclear translocation ([2]; Raw264.7 cells) | densitometry value p-IRAK4 (FIG. 5a) [2] | densitometry value p-P38 (FIG. 5a) [2] | densitometry value APPL1 (FIG. 5e), without LPS ([2]; AdipoAI 5 μM) | densitometry value APPL1 (FIG. 5e), with LPS [2] |
| --- | --- | --- | --- | --- | --- | --- | --- | --- | --- | --- | --- | --- | --- | --- | --- |
| COc1ccc(CN2CCC(NC(=O)COc3ccc(C(=O)c4ccc(Cl)cc4)cc3)CC2)cc1 [Compound 3] | significantly decreased numbers of osteoclasts | significantly attenuated the IL-6 and CCL-2 gene expression | decreased significantly | 75.3% | 328.5±19.9 μm | did not significantly alter phosphorylation of AKT, JNK or ERK | 70% | 70% | increased APPL1 expression | did not influence AdipoR1 or AdipoR2 protein levels | suppressed LPS-induced p65 phosphorylation and nuclear translocation | 0.09 | 0.26 | 1.58 | 0.67 |
| O=C(COc1ccc(C(=O)c2ccccc2)cc1)NC1CCN(Cc2ccccc2)CC1 [AdipoRon, reference compound] | significantly decreased numbers of osteoclasts | significantly attenuated the IL-6 and CCL-2 gene expression | decreased significantly | 73.3% | 344.5±22.2 μm |  |  |  | increased |  |  | 0.13 | 0.76 | 1.53 | 0.45 |
